Measured values published in the NIST ThermoML archive (doi:10.1016/j.jct.2013.04.007).

Assay: cn = amount concentration of the nth substance listed, in mol/dm3
Settings: 303.15 K; 101 kPa; Liquid; 4510 conductivity meter; c1 = 0.001

`CC1=C(C(=O)O)N2C(=O)[C@@H](NC(=O)[C@H](N)c3ccc(O)cc3)[C@H]2SC1` [cefadroxil] + O showed an electrical conductivity of 0.0001 S/m.
